Assay results as given in ChEMBL document CHEMBL3044766, “Synthesis, antitubercular and antifungal activities of heteroaryl-substituted oxiranes derived from BaylisHillman adducts” (2012).
Calls of active or inactive are those of the source. The rule behind the calls is not given here.

Legend:
Aspergillus fumigatus = assay: Antifungal activity against Aspergillus fumigatus at 100 ug/ml after 24 hr by disc diffusion method; type: functional; conditions: read-out: DIZ
Candida albicans = assay: Antifungal activity against Candida albicans at 100 ug/ml after 24 hr by disk diffusion method; type: functional; conditions: read-out: DIZ
[1] = system: Mycobacterium tuberculosis; assay: Growth inhibition of Mycobacterium tuberculosis H37Rv at 100 ug/ml after 4 weeks by Lowenstein-Jensen method; type: functional, organism-based
[2] = system: Mycobacterium tuberculosis; assay: Growth inhibition of Mycobacterium tuberculosis H37Rv at 10 ug/ml after 4 weeks by Lowenstein-Jensen method; type: functional, organism-based
[3] = system: Mycobacterium tuberculosis; assay: Growth inhibition of Mycobacterium tuberculosis H37Rv at 1 ug/ml after 4 weeks by Lowenstein-Jensen method; type: functional, organism-based

SMILES | zone of inhibition at 100 µg/mL (Aspergillus fumigatus) [mm] | zone of inhibition at 100 µg/mL (Candida albicans) [mm] | growth inhibition (GI) [1] | growth inhibition (GI) [2] | growth inhibition (GI) [3]
Clc1ccccc1C(c1ccccc1)(c1ccccc1)n1ccnc1 [CLOTRIMAZOLE] | 21 | 20 |  |  | 
CCOC(=O)C1(C(O)c2cccs2)CO1 (stereo not given) | 10 | 9 | Active | Active | Active
CCOC(=O)C1(C(O)c2ccc[nH]2)CO1 (stereo not given) | 10 | 10 | Active | Active | Active
COC(=O)C1(C(O)c2ccco2)CO1 (stereo not given) | 8 | 7 | Active | Active | Active
CCOC(=O)C1(C(O)c2ccco2)CO1 (stereo not given) | 9 | 8 | Active | Active | Active
NC(=O)c1cnccn1 |  |  | Active | Active | Active
COC(=O)C1(C(O)c2ccc[nH]2)CO1 (stereo not given) | 12 | 9 | Active | Active | Active
COC(=O)C1(C(O)c2cccs2)CO1 (stereo not given) | 12 | 12 | Active | Active | Active
